Assay results published in patent publication US9163044B2, “Carbon monoxide releasing molecules and uses thereof” (Alfama, Inc., priority 2011, dated 2015).

Columns and labels:
[1] = system: APAP-induced acute liver failure (ALF) model; assay: APAP-induced acute liver failure (ALF) model, sublethal (300 mg/kg APAP i.p.); type: in vivo, C57Bl/6 male mice; settings: for ALT levels reduced relative to untreated control animals: +5 h after APAP (300 mg/kg), ALT at 22 hours
Method: Compound 3b was studied in a sublethal model for acetaminophen (APAP)-induced Liver Injury.
ALF was induced in C57Bl/6 male mice with a single dose of acetaminophen (300 mg/kg) by i.p. injection. […] Serum alanine aminotransferase (ALT) was measured 22 h after APAP injection (n=5 mice for each group). […] ALF was induced in C57Bl/6 male mice with a single dose of acetaminophen (300 mg/kg) by i.p. injection. […] Twenty-two hours after APAP injection serum ALT was measured (indicated in FIG. 11A), centrilobular sections of mouse livers were cut and stained with hematoxylin and eosin, and the percentage of liver necrosis was determined. The data indicates a dose-dependent reduction of ALT levels of 9% to 83% relative to APAP control, and a dose-dependent reduction of necrosis of 0% to 56% relative to APAP control.
ALF was induced in C57Bl/6 male mice with a single dose of acetaminophen (300 mg/kg) by i.p. injection. […] Alanine aminotransferase (ALT) was measured 22 h after APAP injection (n=4 or n=5 mice for each group).
ALF was induced in C57Bl/6 male mice with a single dose of acetaminophen (300 mg/kg) by i.p. injection. […] Twenty-two hours after APAP injection, serum ALT was measured (indicated in FIGS. 12A-12B), centrilobular sections of mouse livers were cut and stained with hematoxylin and eosin, and the percentage of liver necrosis was determined.
ALF was induced in C57Bl/6 male mice with a single dose of acetaminophen (300 mg/kg) by i.p. injection.
FIG. 14 depicts the effect of late treatment with Compound 3b on serum ALT in ALF model. ALF was induced in C57Bl/6 male mice with a single dose of acetaminophen (300 mg/kg) by i.p. injection. At sixteen hours after APAP injection, the animals were treated with different doses of Compound 3b (0.3, 3, 30 or 60 mg/kg). Alanine aminotransferase (ALT) was measured 22 h after APAP injection (n=4 or n=5 mice for each group).
ALF was induced in C57Bl/6 male mice with a single dose of acetaminophen (300 mg/kg) by i.p. injection. […] Experiments 1 and 2 represent two independent experiments. Alanine aminotransferase (ALT) was measured 22 h after APAP injection (n=4 or n=5 mice for each group). The ALT levels and the respective percentage of ALT increase, relative to the increase observed in mice injected with APAP alone, are presented in Table 7.
ALF was induced in C57Bl/6 male mice with a single dose of acetaminophen (300 mg/kg) by i.p. injection. […] Twenty-two hours after APAP injection, serum ALT was measured and centrilobular sections of mouse livers were cut and stained with hematoxylin and eosin.

[2] = system: murine partial hepatectomy model; settings: from Yang et al., Crit. Care (2009); cited from earlier work
[3] = system: lethal APAP liver failure model; assay: lethal APAP liver failure model (500 mg/kg APAP i.p.), survival; settings: 2×300 mg/kg, same schedules; data not shown
[4] = half-life for CO release in sheep blood using an oximeter; type: in vitro ADME; settings: 632.1 μg/mL
Method: The stability of compound 4b was determined by measuring the release of CO in vitro in 50 mM Hepes buffer (pH 7.4) using a RCP-equipped GC. Compound 4b concentration was 50 μM. […] The half-life for CO release was also measured in sheep blood using an oximeter. A concentration of 632.1 μg/mL of compound 4b was used.
The half-life for CO release was also measured in sheep blood using an oximeter. […] Compound 5b released 0.12 molar equivalents of CO in 3 hours.

[5] = NAC 2 × 300 mg/kg at 1 h and 3 h post APAP, serum 22 h

CC(=O)N[C@@H](CS)C(=O)O [NAC, N-acetylcysteine, reference compound]
Measured ALT values (mean ± S.D.) Experiment 1 [1, 5]: 1745 ± 738 U/L
Measured ALT values (mean ± S.D.) Experiment 2 [1, 5]: 6620 ± 2142 U/L
effect on serum ALT when given late after APAP injury (in words) ([1]; five hours and seven hours after APAP, NAC 150 mg/kg, Compound 3b 120 mg/kg): no longer effective and increases serum ALT levels (is toxic)
effect on liver regeneration (in words) [2]: no effect and may be detrimental
survival [3]: 100%

O=C(O)C1([N+]#[C][Mo-6]([C]#[O+])([C]#[O+])([C]#[O+])([C]#[N+]C2(C(=O)O)CC2)[C]#[N+]C2(C(=O)O)CC2)CC1 [Compound 5b, tricarbonyl[tris(isocyanocyclopropylcarboxylic acid)]Mo(0)]
CO released in sheep blood in 3 hours [4]: 0.12 molar equivalents of CO
ALT levels reduced relative to untreated control animals ([1]; 120 mg/kg i.p. at +3 h): 70%

O=C([O-])CC([N+]#[C][Mo-6]([C]#[O+])([C]#[O+])([C]#[O+])([C]#[N+]C(CC(=O)[O-])C(=O)[O-])[C]#[N+]C(CC(=O)[O-])C(=O)[O-])C(=O)[O-].[Li+].[Li+].[Li+].[Li+].[Li+].[Li+] (centres unmarked) [Compound 4b, tricarbonyl[tris(lithium 2-isocyanosuccinate)]Mo(0)]
ALT levels reduced relative to untreated control animals ([1]; 30 mg/kg i.p. at +3 h): 75%
